Reference: patent US20240174650A1, “8-(PICOLINAMIDE) SUBSTITUTED COUMARIN COMPOUND, AND PREPARATION METHOD THEREFOR AND USE THEREOF” (LONGIVITRON (SUZHOU) BIOTECHNOLOGY CO., LTD, priority 2021, published 2024)

Assays:
[1] = target: SIRT2 recombinant protein (Homo sapiens (Human), UniProt Q8IXJ6); experiment: In vitro activity screening of SIRT2 inhibitors (fluorogenic Ac-Gln-Pro-Lys-[Lys-(Ac)]-AMC peptide deacetylation assay); format: biochemical; conditions: recombinant SIRT2 1.0 μg, 500 μM NAD+, 50 μM substrate peptide, 37° C. 2 hours
From the text: In vitro activity screening of SIRT2 inhibitors:
The full-length expression sequence ORF of the human SIRT2 gene is 1170 bp (Accession No.: NM_012237), and the molecular mass of the expressed SIRT2 protein is 43 KDa. The SIRT2 recombinant protein is expressed and purified according to the following steps: the SIRT2 gene was cloned into the expression vector pET-15b (primers were shown as follows: forward: 5 ? -[…]-3 ? (SEQ ID NO. 1); backward: 5 ? -[…]-3 ? (SEQ ID NO. 2)), and the expressed SIRT2 protein contained His6-tag at the N-terminus for purification. The plasmid was transformed into E. coli […], and expressed for 6 h at 18° C. with 1 mM IPTG induction. The induced E. coli cells were collected by centrifugation and frozen at −20° C. Bacterial pellet was re-suspended in 15 mL of cell lysis buffer (50 mM Tris-HCl pH 8.0, 300 mM NaCl), and the bacterial sample was disrupted by sonication for 10 min, and then centrifuged (12000×g, 20 min) at 4° C. to remove the precipitates.
The supernatant was purified by Ni^2+ NTA-agarose matrix column (Qiagen). In the purification process, the unbound proteins were first washed away with the loading buffer (50 mM Tris-HCl pH 8.0, 300 mM NaCl), subsequently, the non-specifically bound proteins were washed away by gradually increasing the concentration of imidazole (0-200 mM), and finally the purified recombinant SIRT2 protein was obtained. Imidazole was removed using a PD-10 column and the concentration of purified SIRT2 protein was determined by the Bradford method. The recombinant SIRT2 protein was stored at −20° C. in a preservation buffer (50 mM Tris-HCl, pH 8.0, 265 mM NaCl, 0.2 mM DTT, and 10% glycerol).
The SIRT2 enzyme activity assay is established based on the published studies. Firstly, peptide segment Ac-Gln-Pro-Lys-[Lys-(Ac)]-AMC, the substrate of SIRT2, was synthesized to serve as a substrate in the enzyme activity assay. The attached fluorescent label was AMC (7-Amino-4-methylcoumarin). […] The reaction was carried out at 37° C. for 2 hours. […] Afterwards, 60 μL of sample treating solution (50 mM Tris-HCl, pH 8.0, 100 mM NaCl, Trypsin and 4 mM nicotinamide) was added to the reaction solution and mixed, and placed at 37° C. for 20 min. Absorption intensity was measured by the enzyme-labeled instrument configured as an excitation light of 355 nm and an absorption light of 460 nm.

[2] = tested on: neuroblastoma cell SH-SY5Y; experiment: Cytotoxicity assay for neuroblastoma cell SH-SY5Y (AlamarBlue); format: cell-based; conditions: 48 hours incubation
Protocol: (§1) Cytotoxicity assay of compounds for neuroblastoma cell SH-SY5Y:
(§2) This testing example investigates the cytotoxicity of compounds against neuroblastoma cell SH-SY5Y, in order to determine the dose for the Parkinson ? s cell model protection assay in the next step. For the cytotoxicity assay, the specific test steps are as follows: the cultured neuroblastoma cell SH-SY5Y was grown in a 96-well cell culture plate with approximately 6000 cells per well. After overnight incubation, the culture medium was exchanged for a new one, and each well was added with different concentrations of Compounds 1-18 ([…], 10, 20, 50, 100, 200 μM), and different control samples were arranged. The cells were continued to be incubated at 37° C. for 48 hours. Each well was added with 10 μL of the dye AlamarBlue® (Invitrogen), and the cells were continued to be incubated at 37° C. for approximately 2 hours and then a color change of the staining solution could be observed; the change of absorption values was obtained on the enzyme-labeled instrument (Ex: 530 nm; Em: 590 nm). In the assay, there were 2 parallel tests for each compound with each concentration. The results were processed with software GraphPad Prism to calculate the cytotoxicity CC50 of each compound. The results are shown in Table 2 (in which Taxol is the positive control group).

[3] = tested on: SH-SY5Y cells damaged by neurotoxicant MPP+; experiment: Protective activity on Parkinson's disease cell model (MPP+ treated SH-SY5Y, cell viability); format: cell-based; conditions: compound 10 μM, MPP+ 5 mM, 48 h; FIG. 1
Protocol: Screening for compounds with protective activity on Parkinson ? s disease cell model:
For the screening test for protective effects on the Parkinson ? s disease cell model, the commonly recognized neurotoxicant MPP^+ (5 mM) is used on the neuroblastoma cell SH-SY5Y to construct the Parkinson ? s disease cell model. This neurotoxicant acts on the SH-SY5Y cell, induces abnormal accumulation of α-synuclein in the cells and causes Parkinson ? s disease-like neurotoxicity. The specific test method is as follows: approximately 20000 SH-SY5Y cells were grown in a 96-well cell plate and cultured overnight. […] The cell viability of the Parkinson ? s disease cell model was determined to assess the protective effects of the compounds on the Parkinson ? s cell model. The test data were analyzed by using GraphPad Prism.

[4] = Cytotoxicity assay for neuroblastoma cell SH-SY5Y (AlamarBlue); format: cell-based; conditions: human, SH-SY5Y neuroblastoma cells, 48 hours incubation
Protocol: as §1, §2

Chain of SIRT2 recombinant protein (Q8IXJ6 whole entry): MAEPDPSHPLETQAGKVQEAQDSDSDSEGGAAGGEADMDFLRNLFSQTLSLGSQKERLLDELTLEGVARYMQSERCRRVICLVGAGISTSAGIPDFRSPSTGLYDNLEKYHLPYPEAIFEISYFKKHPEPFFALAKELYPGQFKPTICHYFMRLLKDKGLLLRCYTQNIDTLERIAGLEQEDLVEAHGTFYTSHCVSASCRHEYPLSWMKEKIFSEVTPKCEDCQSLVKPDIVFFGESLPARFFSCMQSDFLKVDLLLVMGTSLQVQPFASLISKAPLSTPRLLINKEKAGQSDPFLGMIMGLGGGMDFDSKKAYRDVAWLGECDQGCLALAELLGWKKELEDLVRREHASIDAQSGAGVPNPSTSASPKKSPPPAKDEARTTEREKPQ

Row | SMILES | IC50 [1] [nM] | CC50 [2] [μmol[…]L^−1] | protective effect against SH-SY5Y cell damage by MPP+ (cell viability) [3] | CC50 at 48 h [4] [nM]
1 | O=C(Nc1ccnc(S(=O)(=O)Nc2ccc(Cl)cc2)c1)c1cccc2ccc(=O)oc12 [Compound 1, N-(2-(N-(4-chlorophenyl)aminosulfonyl)-pyridin-4-yl)-2-oxo-2H-chromene-8-amide] | 86 | >20 | more obvious protective effects | 
2 | N#Cc1ccccc1NS(=O)(=O)c1cc(NC(=O)c2cccc3ccc(=O)oc23)ccn1 [Compound 6, N-(2-(N-(2-cyanophenyl)aminosulfonyl)-pyridin-4-yl)-2-oxo-2H-chromene-8-amide] | 1700 | >20 |  | 
3 | CS(=O)(=O)c1ccc(NS(=O)(=O)c2cc(NC(=O)c3cccc4ccc(=O)oc34)ccn2)cc1 [Compound 8, N-(2-(N-(4-methylsulfonylphenyl)aminosulfonyl)-pyridin-4-yl)-2-oxo-2H-chromene-8-amide] | 896 | >20 |  | 
4 | O=C(Nc1ccnc(S(=O)(=O)Nc2ccc(C(F)(F)F)cc2)c1)c1cccc2ccc(=O)oc12 [Compound 9, N-(2-(N-(4-trifluoromethylphenyl)aminosulfonyl)-pyridin-4-yl)-2-oxo-2H-chromene-8-amide] | 90 | >20 |  | 
5 | O=C(Nc1ccnc(S(=O)(=O)Nc2ccc(-c3ccccc3)cc2)c1)c1cccc2ccc(=O)oc12 [Compound 10, N-(2-(N-(4-phenylphenyl)aminosulfonyl)-pyridin-4-yl)-2-oxo-2H-chromene-8-amide] | 652 | >20 |  | 
6 | COc1ccc(NS(=O)(=O)c2cc(NC(=O)c3cccc4ccc(=O)oc34)ccn2)cc1 [Compound 12, N-(2-(N-(4-methoxylphenyl)aminosulfonyl)-pyridin-4-yl)-2-oxo-2H-chromene-8-amide] | 2360 | >20 |  | 
7 | O=C(Nc1ccnc(S(=O)(=O)Nc2ccc(F)c(F)c2)c1)c1cccc2ccc(=O)oc12 [Compound 13, N-(2-(N-(3,4-difluorophenyl)aminosulfonyl)-pyridin-4-yl)-2-oxo-2H-chromene-8-amide] | 80 | >20 | more obvious protective effects | 
8 | O=C(Nc1ccnc(S(=O)(=O)Nc2ccc(Cl)c(Br)c2)c1)c1cccc2ccc(=O)oc12 [Compound 14, N-(2-(N-(3-bromo-4-chlorophenyl)aminosulfonyl)-pyridin-4-yl)-2-oxo-2H-chromene-8-amide] | 195 | >20 | more obvious protective effects | 
9 | O=C(Nc1ccnc(S(=O)(=O)Nc2cccc3ccc(Br)cc23)c1)c1cccc2ccc(=O)oc12 [Compound 15, N-(2-(N-(7-bromonaphth-1-yl)aminosulfonyl)-pyridin-4-yl)-2-oxo-2H-chromene-8-amide] | 154 | >20 | more obvious protective effects | 
10 | O=C(Nc1ccnc(S(=O)(=O)Nc2cc(Cl)cc3ccccc23)c1)c1cccc2ccc(=O)oc12 [Compound 16, N-(2-(N-(3-chloronaphth-1-yl)aminosulfonyl)-pyridin-4-yl)-2-oxo-2H-chromene-8-amide] | 86 | >20 |  | 
11 | O=C(Nc1ccnc(S(=O)(=O)Nc2cccc3ncccc23)c1)c1cccc2ccc(=O)oc12 [Compound 17, N-(2-(N-(quinoline-5-yl)aminosulfonyl)-pyridin-4-yl)-2-oxo-2H-chromene-8-amide] | 871 | >20 |  | 
12 | CC(=O)O[C@H]1C(=O)[C@@]2(C)[C@H]([C@H](OC(=O)c3ccccc3)[C@]3(O)C[C@H](OC(=O)[C@H](O)[C@@H](NC(=O)c4ccccc4)c4ccccc4)C(C)=C1C3(C)C)[C@]1(OC(C)=O)CO[C@@H]1C[C@@H]2O [Taxol, reference compound] |  |  |  | 21

Further lines, with some results ahead:

Row | IC50 [1] [nM] | SMILES | CC50 [2] [μmol[…]L^−1] | protective effect against SH-SY5Y cell damage by MPP+ (cell viability) [3] | CC50 at 48 h [4] [nM]
13 | 359 | O=C(Nc1ccnc(S(=O)(=O)Nc2cccc(Cl)c2)c1)c1cccc2ccc(=O)oc12 [Compound 2, N-(2-(N-(3-chlorophenyl)aminosulfonyl)-pyridin-4-yl)-2-oxo-2H-chromene-8-amide] | >20 |  | 
14 | 1230 | O=C(Nc1ccnc(S(=O)(=O)Nc2ccccc2Cl)c1)c1cccc2ccc(=O)oc12 [Compound 3, N-(2-(N-(2-chlorophenyl)aminosulfonyl)-pyridin-4-yl)-2-oxo-2H-chromene-8-amide] | >20 |  | 
15 | 356 | Cc1ccc(NS(=O)(=O)c2cc(NC(=O)c3cccc4ccc(=O)oc34)ccn2)cc1 [Compound 4, N-(2-(N-(4-methylphenyl)aminosulfonyl)-pyridin-4-yl)-2-oxo-2H-chromene-8-amide] | >20 |  | 
16 | 180 | O=C(Nc1ccnc(S(=O)(=O)Nc2cccc([N+](=O)[O-])c2)c1)c1cccc2ccc(=O)oc12 [Compound 5, N-(2-(N-(3-nitrophenyl)aminosulfonyl)-pyridin-4-yl)-2-oxo-2H-chromene-8-amide] | >20 |  | 
17 | 120 | O=C(Nc1ccnc(S(=O)(=O)Nc2ccc(F)cc2)c1)c1cccc2ccc(=O)oc12 [Compound 7, N-(2-(N-(4-fluorophenyl)aminosulfonyl)-pyridin-4-yl)-2-oxo-2H-chromene-8-amide] | >20 |  | 
18 | 896 | O=C(Nc1ccnc(S(=O)(=O)Nc2ccc(O)cc2)c1)c1cccc2ccc(=O)oc12 [Compound 11, N-(2-(N-(4-hydroxyphenyl)aminosulfonyl)-pyridin-4-yl)-2-oxo-2H-chromene-8-amide] | >20 |  | 
